Laboratory results: patent US9155691B2, “Composition for reducing skin wrinkles including PDE5 inhibitor” (SK Chemicals Co., Ltd., priority 2010, dated 2015)

Legend:
[1] = system: UVB-induced skin wrinkles of hairless mice; assay: Wrinkle reduction in the skin of UVB-irradiated hairless mice (photographs); type: in vivo
Procedure: An examination was made as to whether the PDE5 inhibitors can substantially reduce skin wrinkles of animal models. Hairless mice, aged 7 weeks, were irradiated with UVB (290-320 nm, 312 nm) to induce wrinkles. The compound or the control was applied to each mouse and its influence on the induced wrinkles was evaluated. More specifically, the mice were irradiated with 60 mJ/cm^2 (1 minimal […] dose (MED)) for 3 days weekly during the first and second week after wrinkling, 120 mJ/cm^2 (2 MED) for 3 days during the third week after wrinkling, 180 mJ/cm^2 (3 MED) for 3 days during the fourth week after wrinkling, 240 mJ/cm^2 (4 MED) for 3 days weekly during the fifth to eighth week after wrinkling, and 240 mJ/cm^2 (4 MED) for 5 days weekly during the ninth to fifteenth week after wrinkling. During the sixteenth and seventeenth week after wrinkling, about 0.5 ml of squalene-OOH, an oxidation product of squalene by UV irradiation, was applied once using a brush to induce deeper wrinkles. […]

[2] = system: Normal human dermal fibroblasts (NHDFs); assay: Stimulatory effect on collagen production: synthesis rate of procollagen type I (C-peptide EIA, corrected for total protein); type: cell-based; details: NHDF, 48 hr, negative control 100.0±0.0%
Procedure: In this example, stimulatory effects of major PDE5 inhibitors on collagen production were investigated in order to determine whether the PDE5 inhibitors are effective in reducing skin wrinkles. Collagen is a very important substance involved in the regulation of wrinkles. Collagen disruption is known to lead to the formation of wrinkles. Collagen production plays an important role in the reduction of wrinkles.
Normal human dermal fibroblasts (NHDFs) were cultured in a complete medium. 400 μl (1×10^5 cells) of the NHDF culture was placed in each well of a 48-well plate and were cultured in an incubator (MCO-20 AIC, Sanyo, Japan) at 37 C.° and 5% CO2 for 24 hr. After completion of culturing, the culture fluid was discarded from the wells. 500 μl of D-phosphate buffered saline (D-PBS) was added to each well for washing. Thereafter, 800 μl of a test substance and 800 μl of a positive control were added to the corresponding wells. 800 μl of a serum-free medium supplemented with DMSO was added to the wells of a negative control. The culture was continued in an incubator at 37 C.° and 5% CO2 for 48 hr. After culturing was completed, the culture fluids were collected from the wells, followed by centrifugation (25 C.°, 3,000 rpm, 10 min). The supernatants were used for the quantification of procollagen type I. After 1 mL of D-PBS was added to each well of the plate, from which the culture fluids had been removed, for washing, 30 μl of a cell lysis buffer (Lot No.: 41, Cell Signaling Technology, U.S.A) was added to each well. The plate was frozen during storage in a deep freezer (DFU-657CL, Operon, Korea) at −70 C.° for 2 hr, and thawed at room temperature. The freeze-thaw procedure was repeated twice to lyse the cells. Each of the cell lysates was collected and centrifuged (Micro 17TR, Hanil Science Industrial, Korea) (4 C.°, 13000 rpm, 30 min). The supernatant was used for total protein quantification.
40 μl of the obtained supernatant was added to each well of a 96-well plate. A standard solution from a BCA protein assay kit (Lot No.: KK140637, Pierce Biotechnology Inc., USA) was diluted stepwise to different concentrations (250, 125, 50, 25, 5 and 0 μg/mL). 40 μl of the dilute solution was added to each well. 160 μl of a reagent mixture from the assay kit was added to each well. Thereafter, the resulting mixtures were allowed to react in an incubator (NB-201V, n-Biotec, Korea) at 60 C.° for 30 min. After completion of the reaction, the absorbance of each well was measured at 562 nm using an ELISA reader (PowerWave XS, BioTek Instruments, Inc., USA). The amounts of total proteins in the wells containing the test substance, the positive control and the negative control were determined by substituting the absorbance value of each well into the standard curve equation.
100 μl of the obtained supernatant was added to each well of a 96-well plate from a procollagen type I C-peptide EIA kit (Lot No.: AB01520C, Takara Bio Inc., Japan). A standard solution from the kit was diluted stepwise to different concentrations (640, 320, 160, 80, 40, 20, 10 and 0 ng/mL). 100 μl of the dilute solution was added to each well. Thereafter, the resulting mixtures were allowed to react in an incubator at 37 C.° for 2 hr. The reaction solution was discarded from each well. The well was washed with 400 μl of PBS (×3). 100 μl of solution 1 from the kit was added to each well. The reaction was carried out at 37 C.° for 1 hr. After completion of the reaction, the reaction solution was discarded from each well and 400 μl of PBS was added to the well for washing (×4). 100 μl of a tetramethylbenzidine (TMBZ) substrate solution from the kit was added to each well. The reaction was carried out at 30 C.° for 15 min. Thereafter, 100 μl of 1 N H2SO4 solution was added to each well to stop the reaction. The absorbance of each well was measured at 450 nm using an ELISA reader. […]

[3] = 10 mM (about 5%), applied to skin twice daily for 14 days, n=7

SMILES	Skin condition after application (cornified layers) ([1]; 0.05%, applied to skin twice, later once daily, n=6)	Skin condition after application [1, 3]	Wrinkle reduction (skin photographs) [1, 3]	Synthesis rate of procollagen type I ([2]; 10 nM, mean of three repeats)	Synthesis rate of procollagen type I ([2]; 100 nM, p<0.01)
CC1=C(/C=C/C(C)=C/C=C/C(C)=C/C(=O)O)C(C)(C)CCC1 [retinoic acid]	Cornified layers were formed and continuously peeled				
CCCc1nn(C)c2c(=O)[nH]c(-c3cc(S(=O)(=O)N4CCN(C)CC4)ccc3OCC)nc12 [sildenafil]		gradually became clean	Wrinkle reduction was observed	108.6±8.1%	160.7±12.1%
CN1CC(=O)N2[C@H](c3ccc4c(c3)OCO4)c3[nH]c4ccccc4c3C[C@@H]2C1=O [tadalafil]				147.2±8.1%	174.7±10.2%
CCCc1nc(C)c2c(=O)[nH]c(-c3cc(S(=O)(=O)N4CCN(CC)CC4)ccc3OCC)nn12 [vardenafil]				140.7±7.8%	162.7±10.0%
